This is an account of results in ChEMBL document CHEMBL1201862, “PubChem BioAssay data set” (2004).

The target in assay [1] is T1, Cannabinoid receptor 2 (Homo sapiens, UniProt P34972). The experiment in a line: SAR analysis of agonists of the Cannabinoid Receptor 2 using an Image-Based Assay. [Related pubchem assays (depositor defined):AID2013, AID2026]. The class given is functional.
The target in assay [2] is T2, G-protein coupled receptor 35 (Homo sapiens, UniProt Q9HC97). Put plainly: SAR analysis of Agonists of the GPR35 Receptor using an Image-Based Assay - Set 2. [Related pubchem assays (depositor defined):AID2013, AID2026]. Format: functional.
The target in assay [3] is T3, Cannabinoid receptor 1 (Homo sapiens, UniProt P21554). The experiment in a line: SAR analysis of antagonists of the Cannabinoid Receptor 1 using an Image-Based Assay - Set 2. [Related pubchem assays (depositor defined):AID2013, AID2026]. The class given is functional.
Assay [4] deals with T4, G-protein coupled receptor 55 (Homo sapiens, UniProt Q9Y2T6). Put plainly: GPR55 antagonists blocking LPI-driven arrestin recruitment, primary screen, imaging, U2OS, beta-arrestin-GFP, LPI agonist (AID 2013).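 Note: antagonist potency measured as reduced agonist-driven arrestin aggregation.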 The class given is functional. (In general: Recruitment of arrestin is a read-out of receptor activation apart from second messengers.)
A further assay concerns the target Cytochrome P450 2C19 (Homo sapiens, UniProt P33261). The experiment in a line: Cytochrome panel assay with activity outcomes. Panel member name: p450-cyp2c19 Compounds with AC50 equal or less than 10 uM are considered active. Format: functional. As to conditions: read-out: AC50.
Assay [5] addresses T3, Cannabinoid receptor 1. Put plainly: SAR analysis of agonists of the Cannabinoid Receptor 1 using an Image-Based Assay - Set 2. [Related pubchem assays (depositor defined):AID2013, AID2026]. Format: functional.
A further assay addresses Cytochrome P450 3A4 (Homo sapiens, UniProt P08684).
In assay [6] the target is T1, Cannabinoid receptor 2. Put plainly: SAR analysis of antagonists of the Cannabinoid Receptor 2 using an Image-Based Assay. [Related pubchem assays (depositor defined):AID2013, AID2026]. The class given is functional.
The target of assay [7] is T4, G-protein coupled receptor 55. Put plainly: GPR55 antagonist potency of analogs, SAR follow-up, imaging, U2OS, beta-arrestin-GFP, LPI agonist, set 2 (AID 2820). The class given is functional.
Assay [8] addresses T2, G-protein coupled receptor 35. The experiment in a line: SAR analysis of Antagonists of the GPR35 Receptor using an Image-Based Assay - Set 3. [Related pubchem assays (depositor defined):AID2013, AID2026]. Format: functional.
Assay [9] addresses Dual specificity protein phosphatase 3 (Homo sapiens, UniProt P51452). Put plainly: SAR VHR1 Fluorescent Assay for In Vitro dose response studies Set 2. [Related pubchem assays (depositor defined):AID1654, AID1661, AID1878]. Format: functional.
The target in assay [10] is Tyrosine-protein phosphatase non-receptor type 7 (Homo sapiens, UniProt P35236). The experiment in a line: SAR analysis of chemical inhibitors of HePTP using a Fluorescent assay - Set 2. [Related pubchem assays (depositor defined):AID1059, AID1077, AID1661, AID2085, AID521]. Format: functional.

Activity calls are given as the source filed them. A value given as a limit tells only on which side of the number the result lay.

T3 sequence (P21554 whole entry): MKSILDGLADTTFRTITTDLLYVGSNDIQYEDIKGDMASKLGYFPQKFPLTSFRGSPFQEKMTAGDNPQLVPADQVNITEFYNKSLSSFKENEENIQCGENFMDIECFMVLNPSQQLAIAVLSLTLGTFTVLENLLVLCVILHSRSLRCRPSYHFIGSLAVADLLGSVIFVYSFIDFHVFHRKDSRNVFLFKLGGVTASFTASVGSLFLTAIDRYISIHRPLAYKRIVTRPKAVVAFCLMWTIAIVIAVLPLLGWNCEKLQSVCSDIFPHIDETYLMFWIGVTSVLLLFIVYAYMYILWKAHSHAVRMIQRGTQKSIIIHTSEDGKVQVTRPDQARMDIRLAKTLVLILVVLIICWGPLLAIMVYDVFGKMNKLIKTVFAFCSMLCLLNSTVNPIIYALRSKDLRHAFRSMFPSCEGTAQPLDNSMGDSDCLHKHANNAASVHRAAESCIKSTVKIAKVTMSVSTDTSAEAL
T1 sequence (P34972 whole entry): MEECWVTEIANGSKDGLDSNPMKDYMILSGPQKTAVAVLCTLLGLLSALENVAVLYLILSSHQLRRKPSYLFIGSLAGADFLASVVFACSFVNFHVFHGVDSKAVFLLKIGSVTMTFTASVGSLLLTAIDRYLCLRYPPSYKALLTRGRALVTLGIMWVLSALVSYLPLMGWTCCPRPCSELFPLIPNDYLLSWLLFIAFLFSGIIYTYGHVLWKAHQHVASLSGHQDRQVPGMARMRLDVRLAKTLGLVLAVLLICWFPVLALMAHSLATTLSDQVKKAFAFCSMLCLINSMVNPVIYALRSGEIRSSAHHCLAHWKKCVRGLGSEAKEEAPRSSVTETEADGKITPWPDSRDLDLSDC
T2 sequence (Q9HC97 whole entry): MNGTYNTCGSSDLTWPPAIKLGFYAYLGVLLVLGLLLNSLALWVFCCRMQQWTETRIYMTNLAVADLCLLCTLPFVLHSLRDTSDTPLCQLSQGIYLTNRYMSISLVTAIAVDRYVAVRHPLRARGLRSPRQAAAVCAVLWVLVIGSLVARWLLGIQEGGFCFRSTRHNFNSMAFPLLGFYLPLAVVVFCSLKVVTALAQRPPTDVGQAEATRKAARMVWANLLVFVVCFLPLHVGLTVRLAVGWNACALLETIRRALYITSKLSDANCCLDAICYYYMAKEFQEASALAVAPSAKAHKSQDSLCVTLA
T4 sequence (Q9Y2T6 whole entry): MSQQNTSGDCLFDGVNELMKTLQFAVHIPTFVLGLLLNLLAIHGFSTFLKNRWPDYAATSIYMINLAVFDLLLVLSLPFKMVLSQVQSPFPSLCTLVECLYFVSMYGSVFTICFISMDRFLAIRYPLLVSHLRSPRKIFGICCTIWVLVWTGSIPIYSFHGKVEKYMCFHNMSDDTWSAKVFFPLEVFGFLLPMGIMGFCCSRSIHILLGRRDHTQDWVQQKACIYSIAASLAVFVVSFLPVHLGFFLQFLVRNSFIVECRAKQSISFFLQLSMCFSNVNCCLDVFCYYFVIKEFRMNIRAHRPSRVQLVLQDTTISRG
Chain of Cytochrome P450 3A4 (P08684 whole entry): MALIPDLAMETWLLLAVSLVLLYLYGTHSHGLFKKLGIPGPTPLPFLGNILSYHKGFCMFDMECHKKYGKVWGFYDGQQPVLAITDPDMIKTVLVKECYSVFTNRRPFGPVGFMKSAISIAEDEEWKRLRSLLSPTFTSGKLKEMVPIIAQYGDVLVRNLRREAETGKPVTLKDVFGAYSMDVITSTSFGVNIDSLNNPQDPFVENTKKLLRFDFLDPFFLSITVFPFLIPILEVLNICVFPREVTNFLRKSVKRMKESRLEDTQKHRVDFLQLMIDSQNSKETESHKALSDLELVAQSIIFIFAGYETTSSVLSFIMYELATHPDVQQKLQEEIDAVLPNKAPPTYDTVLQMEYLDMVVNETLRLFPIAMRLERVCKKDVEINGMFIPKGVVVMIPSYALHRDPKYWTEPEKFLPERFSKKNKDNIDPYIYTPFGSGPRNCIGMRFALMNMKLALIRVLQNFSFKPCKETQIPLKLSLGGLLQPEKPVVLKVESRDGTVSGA
Chain of Dual specificity protein phosphatase 3 (P51452 whole entry): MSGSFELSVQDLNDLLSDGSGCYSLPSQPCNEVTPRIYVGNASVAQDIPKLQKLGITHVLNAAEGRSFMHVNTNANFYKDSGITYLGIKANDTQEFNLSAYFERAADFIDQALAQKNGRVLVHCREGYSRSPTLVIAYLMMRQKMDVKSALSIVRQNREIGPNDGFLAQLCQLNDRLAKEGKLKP
Chain of Tyrosine-protein phosphatase non-receptor type 7 (P35236 whole entry): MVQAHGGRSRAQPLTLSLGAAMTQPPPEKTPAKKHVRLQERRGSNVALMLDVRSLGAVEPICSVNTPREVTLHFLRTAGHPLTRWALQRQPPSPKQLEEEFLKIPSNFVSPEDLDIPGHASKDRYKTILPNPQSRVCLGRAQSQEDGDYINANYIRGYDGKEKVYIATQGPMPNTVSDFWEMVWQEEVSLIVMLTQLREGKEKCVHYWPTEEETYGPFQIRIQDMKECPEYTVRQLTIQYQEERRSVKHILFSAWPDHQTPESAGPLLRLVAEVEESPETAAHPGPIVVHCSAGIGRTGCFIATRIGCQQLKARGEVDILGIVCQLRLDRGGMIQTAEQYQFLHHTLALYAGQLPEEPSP
Chain of Cytochrome P450 2C19 (P33261 whole entry): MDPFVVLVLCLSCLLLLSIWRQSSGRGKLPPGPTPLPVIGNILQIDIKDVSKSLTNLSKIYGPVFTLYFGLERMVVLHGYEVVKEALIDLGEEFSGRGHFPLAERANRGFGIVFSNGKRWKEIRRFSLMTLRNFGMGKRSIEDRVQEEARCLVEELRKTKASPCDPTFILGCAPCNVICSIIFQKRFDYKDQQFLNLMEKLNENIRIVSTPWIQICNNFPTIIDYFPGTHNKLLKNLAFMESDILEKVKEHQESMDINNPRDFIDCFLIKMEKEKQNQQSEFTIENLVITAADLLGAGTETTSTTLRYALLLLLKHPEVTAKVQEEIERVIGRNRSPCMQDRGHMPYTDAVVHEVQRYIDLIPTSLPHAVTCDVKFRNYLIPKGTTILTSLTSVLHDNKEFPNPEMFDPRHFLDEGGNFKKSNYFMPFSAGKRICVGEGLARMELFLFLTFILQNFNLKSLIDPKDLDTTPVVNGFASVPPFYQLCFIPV

Turning to `Cc1cc(C)c2nc(-c3ccccn3)cc(C(=O)Nc3ccc(S(=O)(=O)Nc4cc(C)on4)cc3)c2c1`, the EC50 (on Cannabinoid receptor 2 [1]; in [2]; at Cannabinoid receptor 1 [5]) was > 32 µM (inactive) in each case. The IC50 on Cannabinoid receptor 1 [3] is > 32 µM (inactive); in [4] it was 1.82 µM (active); at Cannabinoid receptor 2 [6] it was > 32 µM (inactive); in assay [7], 0.709 µM (active); in [8] it was > 32 µM (inactive). Also, the AC50 on Cytochrome P450 2C19 and at Cytochrome P450 3A4 was 17.8 µM (inconclusive) in each case.

Take `Nc1c(C(=O)N2CCOCC2)sc(=S)n1-c1ccccc1`: the IC50 in assay [9] was 85.5 µM (active); in assay [10] it was > 100 µM (inactive).

As a reminder, the EC50 is the midpoint of the concentration-response curve. The term IC50 denotes the concentration that inhibits the measured activity by half. Usually AC50 stands for the midpoint of the concentration-response curve, whichever way the signal moves.
